Data from patent US6899886B2, “Acylacetonitriles, process for preparation thereof and miticides containing the same” (Otsuka Chemical Co., Ltd., priority 2000, dated 2005).

How the values were obtained:
Format in all cases: in vivo
two-spotted spider mites [1] = test: whole plant or invertebrate; details: 48 h; 200 ppm sprayed onto kidney bean leaves; after 2 days; read-out: mortality rate of the two-spotted spider mites
Excerpt: A piece of non-woven fabric (4.5×5.5 cm) was suspended inside a plastic cup through an incision made in the lid of the plastic cup. After water was poured into the cup, the cup was covered with the lid. A kidney bean leaf (about 3.5×4.5 cm) was then placed on the sufficiently soaked, non-woven fabric. Another kidney bean leaf with two-spotted spider mites (about 30 mite samples) was placed on top of the first leaf, and the fabric and leaves were placed in a thermostatic chamber having a temperature of 25±2° C. and a humidity of 40%.
Miticidal formulations containing the compound of the invention (200 ppm) were prepared by adding an aqueous solution (100 ppm) of Sorpol 355 (manufactured by Toho Kagaku Co., Ltd.) to a methanol solution of the compound of the invention.
These miticidal formulations were sprayed onto the leaves, and the leaves were air-dried and placed in a thermostatic chamber (25±2° C., humidity 50%). The mortality rate of the two-spotted spider mites was calculated after 2 days.

two-spotted spider mites [2] = test: Test Example 4: residual miticidal test on two-spotted spider mites (sprayed kidney bean plant); details: 200 ppm, 30 ml sprayed on kidney bean plant, counted 2 days later; for Adjusted mortality rate (%) 3 days after spraying: mites introduced 3 days after spraying; for Adjusted mortality rate (%) 5 days after spraying: mites introduced 5 days after spraying
Experimental: (§1) • Test compound A: Compound No. 1 in table 3 (the compound of the invention). • Test compound B: Compound No. 2 in table 3 (the compound of the invention). • Test compound C: Compound No. 10 in table 3 (the compound of the invention). • Test compound E: Compound No. a-683 disclosed in table 1-a on page 81 of Japanese Unexamined Patent Publication No. 158137/1999. (2) Preparation of Emulsifiable Concentration
(§2) Emulsifiable concentrates were prepared by adding the test compound, acetone and Sorpol 355 (surfactant) to distilled water. These emulsions were set to contain acetone in the proportion of 5 wt. % and Sorpol 355 in the proportion of 0.01 wt. %. The concentration of the test compound was set at 200 ppm.
30 ml of each emulsifiable concentrate prepared above was sprayed onto a kidney bean plant (at the stage of true leaf growth) in a 9-cm pot, and air-dried. The pot was placed in a glass greenhouse. Each of the first and second leaves was cut into a piece having a size of 3×5 cm, and 15 female adults of two-spotted spider mite were introduced thereto after 3 and 5 days of the spraying. Those pieces of leaves were placed in a thermostatic chamber having a temperature of 25±1° C. The number of live and dead mites was counted 2 days later. The mortality rate thereof was calculated in the same manner as in test example 3 above.

Apple (jonagold) = test: Test Example 5: phytotoxicity test on field crops; details: 20% wettable powder, degree of dilution 1000, 0.4 liters/m^2, 14 days after spraying
Experimental: (§3) The 20% wettable powders obtained in formulation example 2 were diluted to a predetermined degree and sprayed onto crops in a field in an amount of 0.4 liters/m^2. In a predetermined period after spraying, the development of phytotoxicity was observed by the naked eye. As test compounds, test compounds A, B and C above were used.

Grape (pione) = test: Test Example 5: phytotoxicity test on field crops; details: 20% wettable powder, degree of dilution 2000, 0.4 liters/m^2, 28 days after spraying
Experimental: as §3

Tea (yabukita) = test: Test Example 5: phytotoxicity test on field crops; details: 20% wettable powder, degree of dilution 1000, 0.4 liters/m^2, 21 days after spraying
Experimental: as §3

Orange (iyo) = test: Test Example 5: phytotoxicity test on field crops; details: 20% wettable powder, degree of dilution 1000, 0.4 liters/m^2, 40 days after spraying
Experimental: as §3

Apple (fuji) = test: Test Example 5: phytotoxicity test on field crops; details: 20% wettable powder, degree of dilution 1000, 0.4 liters/m^2, 27 days after spraying
Experimental: as §3

Pear (hosui) = test: Test Example 5: phytotoxicity test on field crops; details: 20% wettable powder, degree of dilution 2000, 0.4 liters/m^2, 21 days after spraying
Experimental: as §3

[3] = system: rice plants, cucumbers, cabbages, spinaches, lettuces, tomatoes, leeks, carrots or kidney bean plants; test: Test Example 6: phytotoxicity test; details: 0.2 liters/m^2
Experimental: As test compounds, test compounds A, B and C above were used. The 20% wettable powders prepared in formulation example 2 were diluted 500 and 1,000 times. These diluted wettable powders were sprayed onto rice plants, cucumbers, cabbages, […], lettuces, tomatoes, leeks, carrots or kidney bean plants in an amount of 0.2 liters/m^2. The development of phytotoxicity was examined by the naked eye 7 and 14 days after the spraying. […] Further, 20% wettable powders using test compound B were diluted 50, 100 and 200 times, and sprayed onto cucumbers, cabbages, leeks or carrots in an amount of 0.2 liters/m^2. The development of phytotoxicity was examined by the naked eye 7 and 14 days after spraying.

two-spotted spider mites [4] = test: Test Example 3: miticidal test on two-spotted spider mites at low concentration; details: 20 ppm emulsifiable concentrate, 2 ml sprayed on leaf with 30 female adults; counted 2 days later
Experimental: as §1, with “compound D: Intermediate” for “compound E: Compound”, “No. II-25” for “No. a-683”, “table 2” for “table 1-a”, “page 101” for “page 81”, “Emulsifiable Concentrate” for “Emulsifiable Concentration”
as §2, with “20” for “200”
2 ml of each emulsifiable concentrate prepared above was sprayed onto a piece of a kidney bean leaf (2×4 cm) with 30 female adults of two-spotted spider mites. After being air-dried, the leaf was placed in a thermostatic chamber having a temperature of 25±1° C. The number of live and dead mites was counted 2 days later. The mortality rate was calculated using the following equation: Mortality rate={1−(survival rate in treated area)/(survival rate in untreated area)}×100

Orange (sour orange) = test: Test Example 5: phytotoxicity test on field crops; details: 20% wettable powder, degree of dilution 400, 0.4 liters/m^2, 40 days after spraying
Experimental: as §3

Orange (mandarin) = test: Test Example 5: phytotoxicity test on field crops; details: 20% wettable powder, degree of dilution 1000, 0.4 liters/m^2, 40 days after spraying
Experimental: as §3

Eggplant (senryo) = test: Test Example 5: phytotoxicity test on field crops; details: 20% wettable powder, degree of dilution 1000, 0.4 liters/m^2, 14 days after spraying
Experimental: as §3

[5] = 20% wettable powders diluted 500 and 1,000 times, nine plant kinds, 7 and 14 days after the spraying

Question: Which mortality at 200 ppm (two-spotted spider mites [1]) does the source give for `COC(=O)C(C#N)(C(=O)c1ccccc1C(F)(F)F)c1ccc(Cl)cc1` (centres unmarked) [Compound No. 30, Methyl 2-(4-Chlorophenyl)-2-(2-Trifluoromethylbenzoyl)Cyanoacetate] here?
Answer: The mortality at 200 ppm was no less than 50%.

Question: `COC(=O)C(C#N)(C(=O)c1ccccc1C(F)(F)F)c1ccc(C(C)(C)C)cc1` (racemic) [Compound No. 1] was tested. Which “Adjusted mortality rate (%) 3 days after spraying” value (“Adjusted mortality rate (%) 3 days” below) (two-spotted spider mites [2]) did it give?
Answer: Its value is 100%.

Question: What about the “Adjusted mortality rate (%) 5 days after spraying” value (“Adjusted mortality rate (%) 5 days” below) (two-spotted spider mites [2]) of the same compound?
Answer: The value was 95%.

Question: What about the Phytotoxicity (Apple (jonagold)) of the same compound?
Answer: The Phytotoxicity was “None”.

Question: And the Phytotoxicity (Grape (pione))?
Answer: Its Phytotoxicity is “None”.

Question: What about the Phytotoxicity (Tea (yabukita)) of the same compound?
Answer: Its Phytotoxicity is “None”.

Question: And the Phytotoxicity (Orange (iyo))?
Answer: The Phytotoxicity was “None”.

Question: And the Phytotoxicity (Apple (fuji))?
Answer: Its Phytotoxicity is “None”.

Question: And the Phytotoxicity (Pear (hosui))?
Answer: The Phytotoxicity was “None”.

Question: What about the development of phytotoxicity [3, 5] of the same compound?
Answer: Its development of phytotoxicity is “no development of phytotoxicity was observed”.

Question: What about the mortality rate (two-spotted spider mites [4]) of the same compound?
Answer: Its mortality rate is 100%.

Question: How did the “Adjusted mortality rate (%) 3 days” value (two-spotted spider mites [2]) turn out when `CCOC(=O)C(C#N)(C(=O)c1ccccc1C(F)(F)F)c1ccc(C(C)(C)C)cc1` (racemic) [Compound No. 2] was run?
Answer: Its value is 100%.

Question: What about the “Adjusted mortality rate (%) 5 days” value (two-spotted spider mites [2]) of the same compound?
Answer: The value was 93%.

Question: What about the Phytotoxicity (Apple (jonagold)) of the same compound?
Answer: The Phytotoxicity was “None”.

Question: And the Phytotoxicity (Grape (pione))?
Answer: Its Phytotoxicity is “None”.

Question: What about the Phytotoxicity (Tea (yabukita)) of the same compound?
Answer: The Phytotoxicity was “None”.

Question: What about the Phytotoxicity (Orange (sour orange)) of the same compound?
Answer: Its Phytotoxicity is “None”.

Question: And the Phytotoxicity (Orange (iyo))?
Answer: The Phytotoxicity was “None”.

Question: And the Phytotoxicity (Apple (fuji))?
Answer: Its Phytotoxicity is “None”.

Question: What about the Phytotoxicity (Pear (hosui)) of the same compound?
Answer: The Phytotoxicity was “None”.

Question: And the Phytotoxicity (Orange (mandarin))?
Answer: Its Phytotoxicity is “None”.

Question: What about the Phytotoxicity (Eggplant (senryo)) of the same compound?
Answer: Its Phytotoxicity is “None”.

Question: What about the development of phytotoxicity ([3]; 20% wettable powders diluted 50, 100 and 200 times, cucumbers, cabbages, leeks or carrots, 7 and 14 days after spraying) of the same compound?
Answer: The development of phytotoxicity was “no development of phytotoxicity was observed”.

Question: And the development of phytotoxicity [3, 5]?
Answer: The development of phytotoxicity was “no development of phytotoxicity was observed”.

Question: And the mortality rate (two-spotted spider mites [4])?
Answer: The mortality rate was 100%.

Question: `COCCOC(=O)C(C#N)(C(=O)c1ccccc1C(F)(F)F)c1ccc(C(C)(C)C)cc1` (racemic) [Compound No. 10] was tested. Which “Adjusted mortality rate (%) 3 days” value (two-spotted spider mites [2]) did it give?
Answer: The value was 100%.

Question: And the “Adjusted mortality rate (%) 5 days” value (two-spotted spider mites [2])?
Answer: Its value is 100%.

Question: What about the Phytotoxicity (Apple (jonagold)) of the same compound?
Answer: Its Phytotoxicity is “None”.

Question: What about the Phytotoxicity (Grape (pione)) of the same compound?
Answer: Its Phytotoxicity is “None”.

Question: What about the Phytotoxicity (Tea (yabukita)) of the same compound?
Answer: Its Phytotoxicity is “None”.

Question: And the Phytotoxicity (Orange (iyo))?
Answer: The Phytotoxicity was “None”.

Question: What about the Phytotoxicity (Apple (fuji)) of the same compound?
Answer: The Phytotoxicity was “None”.

Question: And the Phytotoxicity (Pear (hosui))?
Answer: Its Phytotoxicity is “None”.

Question: What about the development of phytotoxicity [3, 5] of the same compound?
Answer: The development of phytotoxicity was “no development of phytotoxicity was observed”.

Question: What about the mortality rate (two-spotted spider mites [4]) of the same compound?
Answer: Its mortality rate is 100%.
